In patent publication US20230242679A1, “BISPECIFIC ANTIBODY THERAPIES” (priority 2022, published 2023):
“Also recorded” adds a separate entry of the source. Like-named read-outs stand apart in the source and are kept apart here.

Assays:
normal human PBMC = assay: Cytokine release assay in normal human PBMC stimulated with LPS or Poly (I:C); format: cell-based; conditions: for Number of cytokines reduced of those analyzed: LPS or Poly(I:C), pooled and individual donor results
[1] = system: CD19-targeting CAR T-cells co-cultured with CD19+Raji lymphoma target cells; assay: Cytokine levels in co-culture of CD19 CAR T-cells with Raji cells; format: cell-based, human; conditions: for Levels of IL-6 / Levels of TNF-α / Levels of IFN-γ: CAR T-cells:Raji cells 10:1; for Levels of IL-6: FIG. 1A; for Levels of TNF-α: FIG. 1B; for Levels of IFN-γ: FIG. 1C
Source text: The impact of CT01681 on the efficacy of CD19-targeting CAR T-cells in vitro was studied as a surrogate measure of the impact of CTO1681 on T cell function downstream of administering bispecific antibody therapy to a subject. […] CD3 T cells were sorted from one healthy donor PBMCs, stimulated for a short period of time and transduced with CD19 CAR-T lentivirus (LV) containing CD28 and CD3ζ domains. CD19 CAR T-cells were expanded for 6 days and used in the assay. CD19-targeting CD3 T-cells were treated with 5 increasing concentrations of CT01681 (0.36 nM, 1.8 nM, 9 nM, 45 nM, and 225 nM) or vehicle for 30 minutes prior to, and during co-culture with CD19+Raji lymphoma target cells. Media alone, vehicle, and positive control (dexamethasone) wells were included. Following initial treatment, CAR T-cells (Effectors) were co-cultured with fluorescently labeled CD19+Raji tumor cells (Target cells) at 3 different Effector: Target cell ratios (10:1, 5:1 and 1:1) and treated with 5 different concentrations of CT01681 or vehicle for 24 hours. Target cells (Raji cells) were fluorescently labelled with CPD (eBioscience™ Cell Proliferation Dye eFluor™) prior to co-culture to distinguish the Raji cells from the effector cells and allow for analysis of target viability by flow cytometry. Following incubation, supernatant was collected and levels of pro-inflammatory cytokines IL-6 and TNF-α were measured by multiplex Luminex assay and […] was measured via time-resolved fluorescence resonance energy transfer (TR-FRET) assay. These cytokines were selected for quantification as they are early cytokines released following CAR T-cell infusion and bispecific antibody therapy administration in vivo that causes hyperactivation of the immune system resulting in acute systemic inflammation, CRS, multiorgan failure, and possible death. In addition, flow cytometry was used to measure the level of Raji tumor/target cell death following CAR T treatment across CTO1681 conditions to measure impact of CTO1681 with CAR T-cell efficacy. Co-cultures were stained with viability dye 7-AAD for measuring viability.

CD19+Raji tumor cells = assay: Raji target cell killing by CD19 CAR T-cells (flow cytometry, 7-AAD); format: cell-based, human; conditions: 0.36-225 nM; 24 hours; Effector:Target 10:1, 5:1, 1:1; listed as CT01681, monosodium salt
Source text: The impact of CT01681 on the efficacy of CD19-targeting CAR T-cells in vitro was studied as a surrogate measure of the impact of CTO1681 on T cell function downstream of administering bispecific antibody therapy to a subject. […] CD3 T cells were sorted from one healthy donor PBMCs, stimulated for a short period of time and transduced with CD19 CAR-T lentivirus (LV) containing CD28 and CD3ζ domains. CD19 CAR T-cells were expanded for 6 days and used in the assay. CD19-targeting CD3 T-cells were treated with 5 increasing concentrations of CT01681 (0.36 nM, 1.8 nM, 9 nM, 45 nM, and 225 nM) or vehicle for 30 minutes prior to, and during co-culture with CD19+Raji lymphoma target cells. Media alone, vehicle, and positive control (dexamethasone) wells were included. […] Following incubation, supernatant was collected and levels of pro-inflammatory cytokines IL-6 and TNF-α were measured by multiplex Luminex assay and […] was measured via time-resolved fluorescence resonance energy transfer (TR-FRET) assay. These cytokines were selected for quantification as they are early cytokines released following CAR T-cell infusion and bispecific antibody therapy administration in vivo that causes hyperactivation of the immune system resulting in acute systemic inflammation, CRS, multiorgan failure, and possible death. […]

influenza (H1N1) = format: in vivo, mice; conditions: for IL-2 in vivo / IL-6 in vivo / IL-10 in vivo: CytoAgents in vivo influenza (H1N1) studies
influenza (H5N1) = conditions: Gemmus Pharma in vivo influenza (H5N1) studies; listed as CT01681, monosodium salt; cited from earlier work
[2] = system: CRS in SCID or humanized mice with Raji-luc tumor cells; assay: Mouse model of Raji-luc tumor with CAR-T induced CRS (Example 2); conditions: IP, BID for 7 days
[3] = listed as CT01681, monosodium salt
[4] = LPS, 24 h supernatant, CTO1681 750 μM
[5] = Poly(I:C), 24 h supernatant, CTO1681 750 μM
[6] = Effector:Target 10:1, 0.36-225 nM, 24 hours, Luminex

CC#CC[C@H](C)[C@H](O)/C=C/[C@@H]1[C@H]2c3cccc(CCCC(=O)[O-])c3O[C@H]2C[C@H]1O.[Na+] [CTO1681, (+)-[1R, 2R, 3aS, 8bS]-2,3,3a,8b-tetrahydro-2-hydroxy-1-[(E)-(3S,4S)-3-hydroxy-4-methyl-1-octen-6-ynyl)-1Hcyclopenta[b]benzofuran-5-butanoic acid, monosodium salt]
Nominal reduction in ex vivo production of IFNα (normal human PBMC; LPS or Poly(I:C) stimulated PBMC, statistically significant): less than 2 fold | Number of cytokines reduced of those analyzed (normal human PBMC; [3]): 21 of the 29 | Number of cytokines reduced of those analyzed (normal human PBMC; monosodium salt): 21 | Cytokine response CCL2 (MCP-1) (significant reduction) (normal human PBMC; [4]): YES | Cytokine response CCL3 (MIP1 α) (significant reduction) (normal human PBMC; [4]): YES | Cytokine response CCL5 (RANTES) (significant reduction) (normal human PBMC; [4]): YES | Cytokine response CXCL9 (MIG) (significant reduction) (normal human PBMC; [4]): YES | Cytokine response CXCL10 (IP-10) (significant reduction) (normal human PBMC; [4]): YES | Cytokine response FGF (significant reduction) (normal human PBMC; [4]): YES | Cytokine response GM-CSF (significant reduction) (normal human PBMC; [4]): YES | Cytokine response IFN-α2 (significant reduction) (normal human PBMC; [4]): YES | Cytokine response IFN-γ (significant reduction) (normal human PBMC; [4]): YES | Cytokine response IL-1α (significant reduction) (normal human PBMC; [4]): YES | Cytokine response IL-1β (significant reduction) (normal human PBMC; [4]): YES | Cytokine response IL-4 (significant reduction) (normal human PBMC; [4]): YES | Cytokine response IL-5 (significant reduction) (normal human PBMC; [4]): YES | Cytokine response IL-9 (significant reduction) (normal human PBMC; [4]): YES | Cytokine response IL-12 (significant reduction) (normal human PBMC; [4]): YES | Cytokine response IL-13 (significant reduction) (normal human PBMC; [4]): YES | Cytokine response IL-15 (significant reduction) (normal human PBMC; [4]): YES | Cytokine response IL-17 (significant reduction) (normal human PBMC; [4]): YES | Cytokine response IL-18 (significant reduction) (normal human PBMC; [4]): YES | Cytokine response PDGF (significant reduction) (normal human PBMC; [4]): YES | Cytokine response TNF-α (significant reduction) (normal human PBMC; [4]): YES | Cytokine response CCL2 (MCP-1) (significant reduction) (normal human PBMC; [5]): YES | Cytokine response CCL5 (RANTES) (significant reduction) (normal human PBMC; [5]): YES | Cytokine response CXCL9 (MIG) (significant reduction) (normal human PBMC; [5]): YES | Cytokine response CXCL10 (IP-10) (significant reduction) (normal human PBMC; [5]): YES | Cytokine response IFN-α2 (significant reduction) (normal human PBMC; [5]): YES | Cytokine response IFN-γ (significant reduction) (normal human PBMC; [5]): YES | Cytokine response IL-1α (significant reduction) (normal human PBMC; [5]): YES | Cytokine response IL-1β (significant reduction) (normal human PBMC; [5]): YES | Cytokine response IL-4 (significant reduction) (normal human PBMC; [5]): YES | Cytokine response IL-5 (significant reduction) (normal human PBMC; [5]): YES | Cytokine response IL-12 (significant reduction) (normal human PBMC; [5]): YES | Cytokine response IL-13 (significant reduction) (normal human PBMC; [5]): YES | Cytokine response IL-15 (significant reduction) (normal human PBMC; [5]): YES | Cytokine response IL-18 (significant reduction) (normal human PBMC; [5]): YES | Cytokine response PDGF (significant reduction) (normal human PBMC; [5]): YES | Cytokine response TNF-α (significant reduction) (normal human PBMC; [5]): YES | Levels of IL-6 [1, 3]: dose-dependently lowers | Levels of IL-6 ([1]; monosodium salt): dose-dependently reduced | Levels of TNF-α [1, 3]: dose-dependently lowers | Levels of TNF-α ([1]; monosodium salt): dose-dependently reduced | Levels of IFN-γ [1, 3]: dose-dependently lowers | Levels of IFN-γ ([1]; monosodium salt): dose-dependently reduced | Maximum reduction of IL-6 [1, 6]: ~23% | Maximum reduction of TNF-α [1, 6]: approximately 50% | Maximum reduction of IFN-γ ([1]; Effector:Target 10:1, 0.36-225 nM, 24 hours, TR-FRET): ~26% | IL-6 with increasing concentrations ([1]; three CAR-T:Raji ratios (10:1, 5:1, 1:1), FIG. 1D): reduction | TNF-α with increasing concentrations ([1]; three CAR-T:Raji ratios (10:1, 5:1, 1:1), FIG. 1E): reduction | IFN-γ with increasing concentrations ([1]; three CAR-T:Raji ratios (10:1, 5:1, 1:1), FIG. 1F): reduction | Effect on tumor/target cell killing efficacy of CD19 CAR T-cells (CD19+Raji tumor cells): does not interfere; also recorded: absence of an effect; also recorded: did not impact or interfere | IL-2 in vivo (influenza (H1N1); [3]): significantly suppressed | IL-6 in vivo (influenza (H1N1); [3]): significantly suppressed | IL-10 in vivo (influenza (H1N1); [3]): significantly suppressed | IL-2 in vivo (influenza (H1N1); monosodium salt): reduced | IL-6 in vivo (influenza (H1N1); monosodium salt): reduced | IL-10 in vivo (influenza (H1N1); monosodium salt): reduced | IL-8 in vivo (influenza (H1N1); mouse, in vivo): significantly suppressed | IFN-α concentrations in vivo (influenza (H1N1); mouse, in vivo, listed as CT01681, monosodium salt): no significant repression | IFN-α concentrations in vivo (influenza (H1N1); mouse, in vivo, monosodium salt): not suppressed | IL-2 in vivo (influenza (H5N1)): reduced; also recorded: significantly suppressed | IL-6 in vivo (influenza (H5N1)): reduced; also recorded: significantly suppressed | IL-8 in vivo (influenza (H5N1)): reduced; also recorded: significantly suppressed | IL-10 in vivo (influenza (H5N1)): reduced; also recorded: significantly suppressed | Survival benefits versus dexamethasone [2]: greater survival benefits
